Experimental findings from patent US4512986A, “Progrestationally active steroids” (priority 1983, dated 1985) are described below.

The target in assay [1] is T1, Cytosol Progesterone Receptor of the Estrogen-primed Immature Rabbit Uterus (Oryctolagus cuniculus, UniProt P06186).
T1 construct: cytosol progesterone receptor of the estrogen-primed immature rabbit uterus; tissue Dutchland Laboratories, Inc., Denver, Pa (animals); host or cells: uterus cytosol of estradiol-treated immature female New Zealand White rabbits
T1 sequence (P06186 1-930): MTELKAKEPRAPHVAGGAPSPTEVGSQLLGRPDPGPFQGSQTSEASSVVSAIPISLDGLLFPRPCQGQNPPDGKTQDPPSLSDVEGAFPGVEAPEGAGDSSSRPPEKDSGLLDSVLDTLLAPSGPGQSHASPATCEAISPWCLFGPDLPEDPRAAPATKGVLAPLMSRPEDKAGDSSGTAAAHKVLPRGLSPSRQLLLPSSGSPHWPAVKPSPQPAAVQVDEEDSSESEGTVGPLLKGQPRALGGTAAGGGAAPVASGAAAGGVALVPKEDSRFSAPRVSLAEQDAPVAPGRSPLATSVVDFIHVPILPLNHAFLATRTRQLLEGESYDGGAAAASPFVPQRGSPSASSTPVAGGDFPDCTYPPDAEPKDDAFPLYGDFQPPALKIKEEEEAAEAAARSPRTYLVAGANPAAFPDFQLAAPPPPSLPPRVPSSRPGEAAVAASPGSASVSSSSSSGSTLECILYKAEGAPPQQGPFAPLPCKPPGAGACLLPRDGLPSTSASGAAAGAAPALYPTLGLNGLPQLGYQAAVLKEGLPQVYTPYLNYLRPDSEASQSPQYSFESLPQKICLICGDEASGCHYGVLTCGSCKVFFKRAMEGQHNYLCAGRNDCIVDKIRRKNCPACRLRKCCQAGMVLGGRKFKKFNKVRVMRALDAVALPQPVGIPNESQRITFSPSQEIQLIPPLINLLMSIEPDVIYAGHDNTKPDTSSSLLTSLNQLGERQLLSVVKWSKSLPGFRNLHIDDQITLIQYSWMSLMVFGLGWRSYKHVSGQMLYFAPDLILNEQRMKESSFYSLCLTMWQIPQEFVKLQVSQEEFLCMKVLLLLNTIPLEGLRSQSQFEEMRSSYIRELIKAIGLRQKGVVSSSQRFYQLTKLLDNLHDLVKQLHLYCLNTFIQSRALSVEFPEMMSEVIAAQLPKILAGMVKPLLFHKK
Nature of the assay: Relative binding affinity for progesterone receptor (competition with 3H-progesterone). The arrangement: species or system rabbit (New Zealand White). Conditions: for RBA: 16-18 hour incubation, progesterone = 100. As for the experimental part: RBA values recorded at 0° C. after short incubation times (e.g., 2 hr) mainly reflect differences in the association rate constants of the competing ligands, whereas those measured after long incubation times (e.g., 16 to 24 hr) and/or higher temperatures predominantly are influenced by differences in the dissociation rate constants of the competing ligands. RBA's determined after short incubation times primarily reflect the association of the competitor compared to the natural hormone. Conversely, RBA's measured after long incubation times reflect the dissociation rate of the competitor compared to the natural hormone.
The assay components are combined, allowed to equilibrate, and unbound radioactivity removed by charcoal adsorption.
Animal species. Immature female New Zealand White rabbits weighing 0.8 to 1.0 kg (Dutchland Laboratories, Inc., Denver, Pa).
Pretreatment. Subcutaneous treatment with 15 μg 17β-estradiol/0.6 ml sesame oil each morning (0830 to 0930 hr) for three days. Animals sacrificed 24 hr after final injection.
Tissue. Uterus; each uterus weighed about 1.0 g and two or three uteri were pooled for each assay.
Buffer. (A) 0.01M TES, pH 7.4, 1 mM EDTA, 0.012M thioglycerol and 30% glycerol for cytosol preparation and ^3 H-steroid, unlabeled hormone and compound solutions. (B) 0.01M TES, pH 7.4, 1 mM EDTA and 0.012M thioglycerol for charcoal solution.
Homogenization. Five or six 5-second bursts with 30 second cooling periods between bursts using Brinkman Polytron Pt. 10 at 3.5 rheostat setting.
Temperature. 0°-4° C. for all steps.
Centrifugation. 45,000 rpm for 1 hr, 50 Ti rotor, Beckman L8-80 ultracentrifuge.
Incubation. 16-18 hr at 4°-6° C.
Concentations. 1×10^-10 M to 1×10^-5 M (7 concentrations).
Method. Charcoal adsorption method used to remove unbound radioactivity. Five-tenths ml of dextran-coated charcoal (0.5% Norit A and 0.05% dextran T-70) added to all tubes except total radioactivity tubes (0.5 ml buffer [B] added), tubes vortexed 3-5 sec, allowed to sit for 10 minutes and centrifuged 10 minutes at 2000 rpm in Beckman TJ-6 centrifuge at 0°-4° C.
Data Interpretation. […] The relative binding affinity (RBA) of each compound was calculated by using the following equation. [formula] where

The subject of assay [2] is uterine endometrium of estrone-primed immature rabbits. The experiment in a line: Clauberg assay (progestational activity, McPhail). Type of assay: in vivo, rabbit (New Zealand White). Conditions: for McPhail Index (0-4) (X ± S.D.): 0 none, 4 maximal.

As to `C#C[C@]1(C(C)=O)CC[C@H]2[C@@H]3CCC4=CC(=O)CC[C@@H]4[C@H]3CC[C@@]21C` [17α-Ethynyl-19-norprogesterone, 17α-ethynyl-19-nor-4-pregnene-3,20-dione], the results for the RBA in assay [1] (Assay 4) and in assay [1] (Assay 5) were 100% and 133%, respectively. Besides, in assay [1] (compared with progesterone), the “progesterone receptor binding, in words” value is “slightly greater than that of progesterone itself”. Further, the “progestational potency relative to subcutaneous progesterone, in words” value in assay [2] (compound given orally, progesterone sc) was “roughly comparable to subcutaneously administered progesterone”. Further, in assay [2] (compound given sc), the “progestational potency relative to progesterone (sc)” value is “about 100 times”. Further, the “Uterine Weight (X ± S.D.)” value in assay [2] (oral, 50 μg/rabbit daily) is reported as 1.41 ± 0.02 g; in assay [2] (oral, 100 μg/rabbit daily) it was 1.72 ± 0.36 g; in assay [2] (oral, 200 μg/rabbit daily) it was 1.70 ± 0.33 g; in assay [2] (oral, 400 μg/rabbit daily), 3.40 ± 1.14 g; in assay [2] (sc, 2.5 μg/rabbit daily), 2.64 ± 0.22 g; in assay [2] (sc, 5 μg/rabbit daily), 3.55 ± 0.54 g. The “Uterine Weight (X ± S.D.)” value in assay [2] (sc, 10 μg/rabbit daily) was determined as 4.57 ± 0.67 g; in assay [2] (sc, 20 μg/rabbit daily), 4.94 ± 0.87 g. The “McPhail Index (0-4) (X ± S.D.)” value is reported as 0.38 ± 0.27 in assay [2] (oral, 50 μg/rabbit daily); 1.17 ± 1.10 in assay [2] (oral, 100 μg/rabbit daily); 0.83 ± 0.72 in assay [2] (oral, 200 μg/rabbit daily); 3.75 ± 0.10 in assay [2] (oral, 400 μg/rabbit daily); 3.25 ± 0.41 in assay [2] (sc, 2.5 μg/rabbit daily); 3.97 ± 0.05 in assay [2] (sc, 5 μg/rabbit daily). The “McPhail Index (0-4) (X ± S.D.)” value in assay [2] (sc, 10 μg/rabbit daily) is given as 3.92 ± 0.12; in assay [2] (sc, 20 μg/rabbit daily), 4.00 ± 0.00.
